For one data set, the system named is male CD-1 mice. The experiment in a line: Wire hang test, SG-fed mice. Type of data set: in vivo, mouse. The text has this:
Five-month old male CD-1 mice (30.1-35.7 g, 7.5 cm-8.8 cm) were purchased from Charles River (Wilmington, Mass.). Adult mice were chosen to mimic the mean age of onset of ALS-PDC (Kurland, L. T. (1988a) Trends Neurosci. 11, 51-4; Kurland, L. T., et al. (1994) Amyotrophic lateral sclerosis-parkinsonism-dementia complex on Guam: epidemiologic and etiological perspectives. 109-131). Thirty mice for the SG study were randomly divided into 2 groups (14 control and 16 experimental animals). All animals were housed singly in a virus-free barrier facility in a room maintained at 22° C. under a 12 hour light/dark cycle. The mice were provided ad libitum access to food and water.
The synthetic SG was mixed with finely ground Purina Chow mouse pellets (Mouse Diet™, Purina) to create the experimental pellets with a SG content of 1000 μg per pellet. Dry materials were blended with a sterile silicon spatula. For every 5 g of standard feed, 2.5 mL of doubly-distilled water (dd)H2O was added and the dough was kneaded and round up into pellets. A single sterol glucoside containing pellet was placed in the feeding tray each morning before the addition of regular mouse chow (ad libitum). All experimental pellets were entirely consumed by the mice each day. Control mice were fed standard mouse chow pellets of identical weight with no additives. SG feeding was conducted daily for 15 weeks and mice were behaviorally monitored until sacrifice at 35 weeks (time point 1) or 52 weeks (time point 2).
Wire hang: Neuromuscular strength was tested by the wire hang (or hanging wire) test (Wilson, J., et al. (2003d) Neuromolecular Med. 3, 105-18; Wilson, J. M., et al. (2004c) Neuroimage. 23, 336-43; Wilson, J. M., et al. (2005) Soc Neurosci. Abstr. online; Tabata, R. C., et al. (2008) Neuromolecular Med. 10, 24-39). Both balance and grip strength are required for a mouse to keep its body suspended (Crawley, 2000). […] The latency to fall off the wire (maximum 60 seconds) (Sango et al., 1996) was measured from the moment the wire apparatus was inverted (180°). […]

A further data set has as its system lipid deposits. The experiment in a line: Oil red O histochemistry of lipid deposits. Type of data set: in vivo, mouse. The method, then: Tissue-mounted slides were processed to evaluate lipid distribution with light microscopy with a protocol adapted from Dr. Roy Ellis (IMVS Division of Pathology, The Queen Elizabeth Hospital, Woodville, South Australia). First, an oil red O stock solution was prepared 2 hours prior to execution of the histochemical procedures. The oil red O stock stain solution was made by mixing oil red O (0.5 g, Sigma-Aldrich, Oakville, ON, Canada) and isopropanol (100 mL, Fisher Scientific, Nepean, ON, Canada) over a 40° C. water bath. Immediately prior to beginning the oil red O histochemical procedures, the oil red O working solution was made by combining 20 mL of distilled water for every 30 mL of oil red O stock stain solution. […] Slide-mounted sections were rinsed in coplin jars for 15 minutes at RT in three changes of PBS. Sections were then rinsed at RT with 60% isopropanol for 5 minutes. The spinal cord sections were then stained with a freshly prepared working solution of oil red O for 20 minutes and then rinsed with 60% isopropanol. Nuclear counterstaining was achieved by staining the sections with haematoxylin (haematoxylin, 7211, Richard Allan Scientific, Kalamazoo, Mich., USA) for 1 minute. Finally, the sections were rinsed with distilled water, dried under a fume hood and cover-slipped with Entellen (Merck, Darmstadt, Germany).
The numbers of immunoreactive somata or inclusions were counted across the ventral horn of the spinal cord, across brain hemispheres, or per dorsal or ventral root with the 40× objective lens in a 600 μm/600 μm area within region perimeters defined by a mouse brain atlas (2001). For each animal, eight cross-sections per spinal cord or brain region were studied. An average of both the right and left ventral horn for each of the eight cross sections was generated giving a final averaged number for each animal in each of the spinal cord areas. For quantification of the level of mitochondrial activity (cytochrome c oxidase labelling) in the lumbar spinal cord or tyrosine hydroxylase immunoreactivity in the substantia nigra pars compacta and striatal sections, images captured using the Motic B5 Professional Series 3.0 microscope (Motic Instruments Inc., Richmond, ON) and analyzed using Motic B5 Professional, Motic Images Advanced 3.0 (Motic Instruments Inc., Richmond, ON) were scanned into a TIFF format file and analysed using the NIH Image J 1.37 software to measure density levels of antibody labelling. Eight to 12 sections from each mouse per region of interest were included.

Entries after “also recorded” stand apart in the source; their conditions may differ.

As for `CC[C@H](/C=C/[C@@H](C)[C@H]1CC[C@H]2[C@@H]3CC=C4C[C@@H](O[C@@H]5O[C@H](CO)[C@@H](O)[C@H](O)[C@H]5O)CC[C@]4(C)[C@H]3CC[C@]12C)C(C)C` [SG, Stigmasterol β-D-Glucopyranoside], the “Increase in the time between inversion of the apparatus and falling” value with male CD-1 mice (SG fed mice, control group showed an increase) is given as “did not”. Further, the Wirehang entry in the data set on male CD-1 mice (SG-fed vs control, Time-point 2 (52 wk)) was “Wirehang* (*p < 0.05)”. Moreover, the Wirehang performance result in the data set with male CD-1 mice (SG-fed vs control, prior to 35 weeks) is “decline in performance”. Also, in the data set on lipid deposits (SG-fed over time (35 to 52 wk)), the “Lipid deposits DR over time” value is “did not show time-dependent effects; also recorded: SG-fed DR over time: ns, p = 0.8062”; the “Lipid deposits Lsc over time” value is listed as “did not experience an accumulation of deposits over time; also recorded: SG-fed Lsc over time: ns, p = 0.4864”; the “Lipid deposits VR over time” value is “did not show time-dependent effects; also recorded: SG-fed VR over time: ns, p = 0.5478”. In the data set with lipid deposits (SG-fed vs control, 35 weeks), the “Lipids in dorsal roots” value was “not significant” and the “Lipids in ventral spinal roots, change” value is recorded as “+10%”. Moreover, in the data set on lipid deposits (SG-fed vs control, 52 weeks), the “Lipids in dorsal root” value is reported as “statistically significant inter-group differences were not found” and the “Lipids in ventral root” value is “statistically significant inter-group differences were not found”. In addition, the “Number and size of lipid deposits” value in the data set with lipid deposits (lumbar spinal cord and ventral roots, SG-fed vs control) is “greater”.

Source of the values: US9573972B2, “Nurotoxic sterol glycosides” (priority 2008, dated 2017).
